This is an account of results in US7618975B2, “4-arylamino-quinazolines and analogs as activators of caspases and inducers of apoptosis and the use thereof” (Myriad Pharmaceuticals, Inc., priority 2003, dated 2009).

The test system of this assay is T-47D cells. The assay can be described thus: Caspase cascade activation (N-(Ac-DEVD)-N′-ethoxycarbonyl-R110 fluorogenic substrate) in T-47D cells. As to Caspase activity Ratio T-47D (24 hr): test concentration or dose not given here. As to Caspase activity Ratio T-47D (48 hr): test concentration or dose not given here. The following applies: T-47D; for Caspase activity Ratio T-47D (48 hr) / Caspase activity Ratio T-47D (24 hr): ratio of net RFU to control; for Ratio T-47D (48 hr): benzohydrazide analogs table. The assay is classed as cell-based, Human.

Take `COc1ccccc1Nc1nc(Cl)nc2ccccc12` [Example 33, (2-Chloro-quinazolin-4-yl)-(2-methoxy-phenyl)-amine]: the “Caspase activity Ratio T-47D (48 hr)” value was 1.0.
Consider `CN(NC(=O)c1ccccc1F)c1nc(C(F)(F)F)nc2ccccc12` [2-fluoro-N′-(2-(trifluoromethyl)quinazolin-4-yl)-N′-methylbenzohydrazide], for which the “Ratio T-47D (48 hr)” value is given as 13.7.
With `COc1ccc(N(C)c2nc(CN(C)C)nc3ccccc23)cc1` [Example 77, (2-Dimethylaminomethyl-quinazolin-4-yl)-(4-methoxy-phenyl)-methyl-amine], the “Caspase activity Ratio T-47D (24 hr)” value was determined as 5.7 and the “Caspase activity Ratio T-47D (48 hr)” value stood at 12.3.
With `COc1ccc(N(C)c2nc(N(C)c3ccc(OC)cc3)c3cc(Cl)ccc3n2)cc1` [Example 61, 6-Chloro-N^2N^4-bis-(4-methoxy-phenyl)-N^2,N^4-dimethyl-quinazoline-2,4-diamine], the “Caspase activity Ratio T-47D (48 hr)” value was found to be 9.2.
With `Cc1nc(N(C)c2ccc(N(C)C)cc2)c2ccccc2n1` [Example 105, (4-Dimethylamino-phenyl)-(2-methyl-quinazolin-4-yl)-methyl-amine], the “Caspase activity Ratio T-47D (24 hr)” value is listed as 8.5.
Regarding `COc1ccc(N(C)c2nc(Cl)nc3c(C)cccc23)cc1` [Example 59, (2-Chloro-8-methyl-quinazolin-4-yl)-(4-methoxy-phenyl)-methyl-amine], the “Caspase activity Ratio T-47D (48 hr)” value amounted to 7.1.
Turning to `CN(c1ccc(Cl)cc1)c1nc(Cl)nc2ccccc12` [Example 3, (2-Chloro-quinazolin-4-yl)-(4-chloro-phenyl)-methyl-amine], the “Caspase activity Ratio T-47D (24 hr)” value stood at 8.1.
With `CSc1nc(N(C)NC(=O)c2ccccc2)c2ccccc2n1` [N′-methyl-N′-(2-(methylthio)quinazolin-4-yl)benzohydrazide], the “Ratio T-47D (48 hr)” value is recorded as 14.7.
Consider `CN(c1ccc(O)cc1)c1nc(Cl)nc2ccccc12` [Example 54, (2-Chloro-quinazolin-4-yl)-(4-hydroxyphenyl)-methylamine], for which the “Caspase activity Ratio T-47D (48 hr)” value was found to be 12.5.
Turning to `CNc1nc(N(C)c2ccc(OC)nc2)c2ccccc2n1` [Example 129, (2-Methylamino-quinazolin-4-yl)-(6-methoxy-pyridin-3-yl)-methyl-amine], the “Caspase activity Ratio T-47D (24 hr)” value turned out to be 10.
For the compound `COc1ccc(N(C)c2nc(-c3ccccc3)nc3ccccc23)cc1` [Example 83, (4-Methoxy-phenyl)-(2-phenyl-quinazolin-4-yl)-methyl-amine], the “Caspase activity Ratio T-47D (48 hr)” value was 10.8.
As for `CNc1nc(N(C)c2ccc(OC)cc2)c2ccccc2n1` [Example 123, (2-Methylamino-quinazolin-4-yl)-(4-methoxy-phenyl)-methyl-amine], the “Caspase activity Ratio T-47D (24 hr)” value is on record as 8.2.
As to `CSc1nc(N(C)NC(=O)c2cccc(C)c2)c2ccccc2n1` [N′,3-dimethyl-N′-(2-(methylthio)quinazolin-4-yl)benzohydrazide], the “Ratio T-47D (48 hr)” value stood at 12.7.
Take `COc1ccc(Nc2nc(C)nc3ccccc23)nc1` [Example 137, (5-Methoxy-pyridin-2-yl)-(2-methyl-quinazolin-4-yl)-amine]: the “Caspase activity Ratio T-47D (24 hr)” value is on record as 1.2.
In the case of `COc1ccc(N(C)c2nc(Cl)nc3cccc(C)c23)cc1` [Example 58, (2-Chloro-5-methyl-quinazolin-4-yl)-(4-methoxy-phenyl)-methyl-amine], the “Caspase activity Ratio T-47D (48 hr)” value is 10.8.
As to `Cc1nc(N(C)c2ccc(C(=O)ON3C(=O)CCC3=O)cc2)c2ccccc2n1` [Example 119, Succinimidyl 4-(N-Methyl-N-(2-methylquinazolin-4-yl)amino)benzoic Acid Ester], the “Caspase activity Ratio T-47D (24 hr)” value is given as 11.8.
In the case of `COc1ccc(N(C)c2ccnc3ccccc23)cc1` [Example 66, (4-Methoxy-phenyl)-methyl-(quinolin-4-yl)-amine], the “Caspase activity Ratio T-47D (24 hr)” value came to 7.2 and the “Caspase activity Ratio T-47D (48 hr)” value was 12.5.
